Data set [1] can be described thus: Detection of MIND4 in mouse brain after escalated i.p. dosing. The format is in vivo. To be noted: brain cortex, intraperitoneal, i.p. daily, escalated 50 to 275 mg/kg, 2 hours after last dose, HPLC, read-out: Concentration in wild type mouse cortices. Here is the method: To evaluate whether MIND4 would also confer an anti-inflammatory effect in vivo, pilot studies were performed to assess brain permeability of MIND4 in mice (FIG. 7A-B). MIND4 was solubilized at 5 mg/ml in 7.5% Cremophor EL (BASF)/2.375% Ethanol in PBS, Wild type mice (N=3) were subjected to MIND4 treatment at escalated dosing from 50 mg/kg up to a final dose of 275 mg/kg administered daily by intraperitoneal (i.p.) injection. […] Mice were sacrificed 2 hours following the last drug administration and isolated cortical samples were subjected to HPLC analysis.
Specifically, frozen mouse cortical tissues were extracted in ice cold methanol containing 0.4% acetic acid (approximately 1:6 ratios), probe sonicated for 5 sec and centrifuged at 22000×g for 20 min at 4 C. The supernatant was dried under centrifugation and vacuum and reconstituted with running buffer. Reverse phase-HPLC/ECA separation was accomplished on shisedo MG240 C18 HPLC column (4.6×250 mm, 3μ particle size), flow rate 1 ml/min, using 50% methanol in 0.1M sodium phosphate buffer pH 3, isocratic elution was performed for 20 min using 4 channel electrochemical array. Levels of MIND4 in the brain samples were determined using integrated peak areas and the standard curves

The test system of another data set is TNFα. The data set can be described thus: TNFα protein in brain of HD mouse model R6/2. The format is in vivo. The conditions noted are these: R6/2 mice, daily i.p. 50 mg/kg, 4 weeks. Here is the method:
To assess protein levels, cell extracts were prepared from cells washed with PBS and lysed with buffer containing 2% SDS, Complete EDTA-free Protease Inhibitor Cocktail (Roche) and 1 mM phenylmethylsulfonyl fluoride. To prepare brain extracts for analysis, frozen mouse cortical tissues were homogenized in PBS containing protease inhibitors with an Kontes Pellet Pestle (Kimble/Kontes). They were later sonicated and lysed overnight at 4° C. in 2× volume of lysis buffer containing 2% SDS and protease inhibitors. Protein concentrations in ST14A cell extracts and homogenized cortical tissues were evaluated using a BCA analysis kit and normalized. Samples were prepared in a SDS buffer containing DTT and separated on bis-acrylamide protein gels via electrophoresis and transferred onto a 0.2 μm PVDF membrane). […]
For this animal trial, the well-characterized transgenic R6/2 mouse model of HD was selected, in which severe neurological phenotypes and premature death at age of 12-13 week is conferred by expression of a human HTT exon 1 fragment containing a pathological ˜150Q repeat tract (Mangiarini et al., 1996). […] Body weights were recorded weekly at the same time of day. At 10 weeks of age, mice were sacrificed 2 hrs after the last injection; brains were removed and snap frozen in liquid nitrogen and kept frozen at −80° C. until analyzed. […]

For the next data set, the system named is primary microglia. The data set can be described thus: IL-6 release from primary microglia of wild type and YAC128 mice (ELISA). The format is cell-based, mouse. To be noted: CSE and INF-γ stimulated wild type and YAC128 microglia. Here is the method: Whole brains were obtained from post-natal 1 to 3 day old wild type and YAC128 mouse pups on the FVB/N strain background and placed in Hanks Balanced Salt Solution (HBSS; Invitrogen) on ice. Meninges were removed and the remaining brain tissue was placed into growth medium (DMEM [Invitrogen], 10% FBS [PAA], 1% L-glutamine [Invitrogen], 1% penicillin/streptomycin [Invitrogen]), and homogenized using a 5 ml pipette. Cells of each brain were pelleted, re-suspended in growth medium and transferred into a T150 flask, cultured at 37° C. with 5% CO2. Growth medium was replaced after 24 hr and then every 7 days. After 18 to 21 days in culture, loosely attached microglia were harvested and seeded at 1.4×10^5 cells/ml with pre-incubated conditioned media into 96-well PRIMARIA™ tissue culture plates (BD Falcon). Adherent astrocytes were plated at 1.4×10^5 cells/ml in 10% FBS media for 24 hr in 96-well PRIMARIA™ tissue culture plates. After the initial isolation microglia and astrocytes were seeded at a density of 1.4×10^5 cells/ml into 96-well PRIMARIA™ tissue culture plates. […] Cells were lysed and total protein levels were determined using the microBCA kit (Thermo Scientific). Supernatants were analyzed using mouse IL-6 ELISA (e-Biocience) and IL-6 levels were normalized to total protein levels.
For orientation: ELISA stands for enzyme-linked immunosorbent assay.

Turning to `O=[N+]([O-])c1ccc(Sc2nnc(COc3ccccc3)n2-c2ccccc2)c2ncccc12` [MIND4, 5-nitro-8-{[5-(phenoxymethyl)-4-phenyl-4H-1,2,4-triazol-3-yl]thio}quinoline], the concentration at 2 h in data set [1] is ~500 nM. Besides, the “TNFα protein levels in cortical extracts” value with TNFα was “striking reduction of TNFα”.

`O=[N+]([O-])c1ccc(Sc2nnc(COc3ccccc3)n2-c2ccccc2)nc1` [MIND4-17]: the IL-6 secretion result in the data set with primary microglia is “reduced the amount of IL-6 secreted”.

These data come from US9737525B2, “Small molecule activators of NRF2 pathway” (The General Hospital Corporation, priority 2013, dated 2017).
